Test results reported in patent US4168313A, “Phthalidyl 2-(3'-trifluoromethyl-anilino)-pyridine-3-carboxylate and its salts” (priority 1978, dated 1979).

What was measured:
oral tolerability = assay type: in vivo
[1] = system: carraghenine-provoked aedema of the paw of rat; assay: carraghenine-provoked aedema of the paw of rat (antiinflammatory activity); assay type: in vivo; conditions: for % AEDEMA INHIBITION 3 hr / % AEDEMA INHIBITION 4 hr: rat paw, TNA 47 mg/Kg, PTP 69 mg/Kg (equivalent to 47 mg of the acid)
From the text: 1 By means of the test involving the carraghenine-provoked aedema of the paw of rat (Winter, C. A., Proceeding Soc. Exp. Biol. Med., III, 544, 1962) the antiinflammatory activities of phthalidyl 2-(3'-trifluormethylanilino)-pyridine-3-carboxylate (PTP) and 2(3'-trifluormethylanilino) nicotinic acid (TNA), were compared.

gastric epithelium = assay: method of Goldemberg, ulceration by pylorus ligature (ulcerogenic effect); assay type: in vivo, Sprague-Dowley rats; conditions: for ulceration Score: score 0=no hemorrhagic spots to 6=perforated ulcer, control (distilled water) 2.0, mg/Kg: phenylbutazone 75, acid 47, acetylsalicylic acid 200, phthalidyl ester 69; for ulcerogenic effect (in words): summary statement, b45 relative to the respective acid; for ulceration score Increase: increase over control (distilled water) score 2.0, mg/Kg: phenylbutazone 75, acid 47, acetylsalicylic acid 200
Method: 2 To compare the effect on ulcer of the new compound regarding to other antiinflammatory drugs, the method of Goldemberg (ulceration by pylorus ligature) (Arzneim. Forsch. (Drug Res.) 26, 3, 1976) to Sprague-Dowley rats (400-600 g of weight), was performed. The ulceration of the gastric epithelium was observed and evaluated in accordance to the following score; 0=no hemorrhagic spots; 1=some isolated hemorrhagic spots; 2=redness of the gastric epithelium; 3=1 to 5 small ulcers with a diameter greater than 3 mm; 6=perforated ulcer.

[2] = background statement; cited from earlier work
[3] = background statement; cited from earlier work; remark: listed apart in the source

Row | SMILES | oral tolerability (in words) (oral tolerability) | % AEDEMA INHIBITION 3 hr [1] [%] | % AEDEMA INHIBITION 4 hr [1] [%] | antiinflammatory activity compared with the acid (in words) ([1]; relative to 2(3'-trifluormethylanilino) pyridine-3-carboxylic acid) | anti-inflammatory activity (in words) ([1]; summary statement) | ulceration Score (gastric epithelium) | ulcerogenic effect (in words) (gastric epithelium) | ulcerogenic effect (in words) (gastric epithelium; listed as phthalidyl ester) | ulceration score Increase (gastric epithelium) | ulcer provocation (in words) [2] | antiinflammatory activity (in words) [3]
1 | O=C1OC(OC(=O)c2cccnc2Nc2cccc(C(F)(F)F)c2)c2ccccc21 (stereo not drawn) [PTP, phthalidyl 2-(3'-trifluormethylanilino)-pyridine-3-carboxylate] | orally well tolerated | 32 | 37.8 | antiinflammatory activity greater than the acid | anti-inflammatory activity | 2.0 | less ulcerogenic than respective acid | without ulcerogenic effect |  |  | 
2 | CCCCC1C(=O)N(c2ccccc2)N(c2ccccc2)C1=O [Phenylbutazone] |  |  |  |  |  | 4.3 |  |  | 2.3 |  | 
3 | O=C(O)c1cccnc1Nc1cccc(C(F)(F)F)c1 [TNA, 2(3'-trifluormethylanilino) nicotinic acid] |  | 25.6 | 31.8 |  |  | 3.3 |  |  | 1.3 | provoke ulcers | relevant antiinflammatory activity
4 | CC(=O)Oc1ccccc1C(=O)O [Acetylsalicylic acid] |  |  |  |  |  | 3.9 |  |  | 1.9 |  | 
